# Where a SMILES comes first, the peptide text is derived from it. Bridges are numbered along the chain shown (N, C = ends). [ ]: non-standard residue; d: D form. S5 = C=CCCC[C@](C)(N)C(=O)O
# Assays:
# [1] = tested on: MDA-MB-231-GFP xenograft; assay: MDA-MB-231-GFP orthotopic xenograft tumor model; format: in vivo, mouse
# Text: (§1) Female BALB/c mice (4–5 weeks old, 16–18 g) and BALB/c mice (7–8 weeks old, 18–20 g) were provided by Shanghai Slake Experimental Animal Co., Ltd., and housed under specific pathogen‐free conditions for use in orthotopic xenograft tumor model experiments and bone metastasis tumor model experiments. The animal experiment was approved by the ethical committee of Shanghai University of Traditional Chinese Medicine (approval number: PZSHUTCM220627036).
# To establish the bone metastasis tumor model, 1×10^5 cells were injected into the left ventricle of each mouse (7–8 weeks old), and surgery was monitored using a cardiac ultrasound instrument. The mice were randomly divided into three groups and treated with PBS (control group, n = 6), 5 mg kg^−1 ST‐CY14 (n = 6), and 10 mg kg^−1 ST‐CY14 (n = 6) Tumor cell metastasis was monitored using an in vivo imaging instrument (IVIS Spectrum, PerkinElmer, USA). by intraperitoneal injection of 20 mg kg^−1 D‐luciferin. The mice were treated with ST‐CY14 via intravenous injection using a 100 µL PBS solution every 2 days starting on the designated day after tumor cell injection. Bone tissue with MDA‐BoM‐1833 cell metastasis was obtained and stained for TRAP. The mice sera were collected and analyzed for BSP and β‐CTx levels using ELISA (Lengton, BPE10823, BPE10438). For the orthotopic xenograft tumor model, 3×10^6 cells were injected into the fourth pair of breast pads on the left side of the mouse (4–5 weeks old). The mice were treated with ST‐CY14 every two days once the tumor volume reached 30–50 mm^3, with the same groups as in the bone metastasis tumor model. The tumors were collected and stained for H&E, Ki‐67, and TUNEL assays, which were conducted by Wuhan Servicebio Technology Co., Ltd. Major organs (heart, liver, spleen, lung, and kidney) were also collected for H&E analysis by Wuhan Servicebio Technology Co., Ltd. The Transcriptome and LC/MS targeted lipid metabolome were sequenced by OE Biotech, Inc., Shanghai, China. […]
# [2] = tested on: MDA-BoM-1833 bone metastasis; assay: Bone metastatic breast cancer model (MDA-BoM-1833, left ventricle injection); format: in vivo, mouse
# Text: as §1
# To establish the bone metastasis tumor model, 1×10^5 cells were injected into the left ventricle of each mouse (7–8 weeks old), and surgery was monitored using a cardiac ultrasound instrument. The mice were randomly divided into three groups and treated with PBS (control group, n = 6), 5 mg kg^−1 ST‐CY14 (n = 6), and 10 mg kg^−1 ST‐CY14 (n = 6) Tumor cell metastasis was monitored using an in vivo imaging instrument (IVIS Spectrum, PerkinElmer, USA). by intraperitoneal injection of 20 mg kg^−1 D‐luciferin. The mice were treated with ST‐CY14 via intravenous injection using a 100 µL PBS solution every 2 days starting on the designated day after tumor cell injection. Bone tissue with MDA‐BoM‐1833 cell metastasis was obtained and stained for TRAP. The mice sera were collected and analyzed for BSP and β‐CTx levels using ELISA (Lengton, BPE10823, BPE10438). For the orthotopic xenograft tumor model, 3×10^6 cells were injected into the fourth pair of breast pads on the left side of the mouse (4–5 weeks old). The mice were treated with ST‐CY14 every two days once the tumor volume reached 30–50 mm^3, with the same groups as in the bone metastasis tumor model. The tumors were collected and stained for H&E, Ki‐67, and TUNEL assays, which were conducted by Wuhan Servicebio Technology Co., Ltd. Major organs (heart, liver, spleen, lung, and kidney) were also collected for H&E analysis by Wuhan Servicebio Technology Co., Ltd. The Transcriptome and LC/MS targeted lipid metabolome were sequenced by OE Biotech, Inc., Shanghai, China. To evaluate the efficacy of Csn‐B in inhibiting breast cancer bone metastasis, an animal model was established as described above. The mice were randomly divided into three groups and treated with PBS (control group, n = 6), 10 mg kg^−1 ST‐CY14 (n = 6) in 100 µL PBS solution, and 5 mg kg^−1 ST‐CY14 (n = 6) in a 100 µL mixed solution (5% DMSO, 20% PEG 400, 5% Tween 80, and 70% normal saline) via intravenous injection every 2 days starting on the designated day after tumor cell injection.
# [3] = tested on: MCF7 cells; assay: Scratch (wound-healing) assay; format: cell-based, human; conditions: MCF7, 12 h
# Protocol: MCF7 and MDA‐MB‐231 cells were seeded in 6‐well plates and cultured overnight. Once the cell density reached 90%, a line was scratched along the center of the 6‐well plate and images were taken randomly in the scratch domain under a microscope. The cells in each well were then treated with peptides of varying concentrations for 12 h, after which images were taken again in the scratch domain. The formula used to calculate the scratch healing rate was as follows: Scratch healing rate (%) = [(Scratch area at 0 h – Scratch area at 12 h) […] Scratch area at 0 h] × 100%.
# [4] = tested on: MDA-MB-231 cells; assay: Transwell cell migration analysis; format: cell-based; conditions: MDA-MB-231, 12 h
# Protocol: 600 µL DMEM complete medium was added to the lower chamber of the Transwell. Next, 2×10^4 cells in 100 µL DMEM medium, containing 1, 2, 5, 10, or 2 × 10^−5 M peptides, were added to the upper chamber of the Transwell. The cells were incubated for 12 h at 37 °C and 5% CO2. After the incubation period, the medium was discarded, and the chamber was washed with PBS. The cells were then fixed with 4% paraformaldehyde for 20 min. The upper chamber was subsequently soaked in crystal violet for 20 min, washed with PBS, and observed under a microscope for analysis.
smiles,measurement,setting,value
C[C@@H](O)[C@@H]1NC(=O)[C@H](CCCNC(=N)N)NC(=O)[C@H](CCCNC(=N)N)NC(=O)[C@@](C)(NC(=O)[C@H](Cc2ccccc2)NC(=O)CNC(=O)[C@H](CCCCN)NC(=O)[C@H](CS)NC(=O)CNC(=O)[C@H](CCC(=O)O)NC(=O)[C@@H](N)CS)CCCC=CCCC[C@@](C)(C(=O)N[C@@H](CCCNC(=N)N)C(=O)N[C@@H](Cc2ccc(O)cc2)C(=O)N[C@@H](Cc2ccc(O)cc2)C(=O)NCC(=O)N[C@@H](CCCNC(=N)N)C(=O)N[C@@H](CCCCN)C(=O)N[C@@H](CCCCN)C(=O)N[C@@H](CCCNC(=N)N)C(=O)N[C@@H](CCCNC(=N)N)C(=O)N[C@@H](CCC(N)=O)C(=O)N[C@@H](CCCNC(=N)N)C(=O)N[C@@H](CCCNC(=N)N)C(=O)N[C@@H](CCCNC(=N)N)C(N)=O)NC1=O [ST-CY14] (H-CEGCKGF[S5]RRT[S5]RYYGRKKRRQRRR-NH2; staple 8-12),Body weight loss and signs of organ toxicity,"[1]; 5 and 10 mg kg^−1, tail vein, once every two days, thirty days, H&E of major organs",without significant body weight loss (Figure 6c) or other signs of organ toxicity
same,"Nur77, CD36 and FABP4 protein levels in tumors (Western blot)",[1]; MDA-MB-231-GFP tumors,"effectively increased Nur77 protein levels, and decreased CD36 and FABP4 protein levels"
same,"Ki-67, H&E and TUNEL analysis of tumor sections","[1]; compared with the control group, n = 3","reduced tumor cell proliferation, increased necrosis area and apoptosis"
same,Bone metastasis (bioluminescence imaging),"[2]; 5 and 10 mg kg^−1 i.v. every 2 days, day 28, n = 6",inhibited the metastasis of tumor cells
same,H&E staining of major organs,"[2]; heart, liver, spleen, lung, kidney, n = 3",None of the groups demonstrated notable changes in H&E staining of major organs
same,Efficacy in inhibiting bone metastasis compared with Csn-B,"[2]; i.v. every 2 days, day 28, n = 6",superior to that of Csn‐B
same,TRAP level in mouse femoral head,[2]; staining of bone tissue,decrease in the level of tartrate‐resistant acid phosphatase
same,BSP and β-CTx levels in mouse blood (ELISA),[2]; versus control group,Lower levels
same,Scratch healing,[3],suppressed the scratch healing
same,Transwell transmigration,[4],inhibited the transmigration

# Reference: publication PMC11234460, “In Silico Discovery of Stapled Peptide Inhibitor Targeting the Nur77‐PPARγ Interaction and Its Anti‐Breast‐Cancer Efficacy” (Advanced Science, 2024)
